Reference: patent publication US20250312291A1, “DIARYLHEPTANOID BASED MEDICINAL PREPARATION AND METHOD OF PREPARATION OF THE SAME” (ARJUNA NATURAL PRIVATE LIMITED, priority 2022, published 2025)

Test system: Amphistome ova
Experiment: Deworming in cows positive for Amphistome ova (ova checked from dung matter)
Assay type: in vivo
Conditions: before treatment (baseline)
Excerpt: In one embodiment efficacy of diarylheptanoid metal complex on deworming in cows was studied. Cows positive for Amphistome ova were selected and treated with diarylheptanoid metal complex. Deworming in cows is important for several reasons. First, internal parasites or worms can cause significant harm to cow health and productivity. These parasites can cause damage to the cow's gastrointestinal tract, leading to reduced feed intake, weight loss, and poor growth rates. In severe cases, internal parasites can even lead to death. Second, internal parasites can also have economic impacts on the farm. Infected cows may have reduced milk production and lower-quality meat, which can lead to financial losses for the farmer. Third, internal parasites can also be a source of infection for other animals on the farm. Some parasites can be passed from cow to cow or from cow to other species such as sheep or goats. After 30 days of treatment with diarylheptanoid calcium complex, the number of Ova in the dung matter is nil compared to untreated control.
Twenty cows that were positive for Amphistome ova were selected for this study. Cows were grouped into four groups with 5 cows in each group. Cows were segregated as follows.
Before and after 30 days of treatment ova was checked from the dung matter.

For CCCSc1ccc2nc(NC(=O)OC)[nH]c2c1 [Albendazole], the “Ova Before” value was “+ + + + +”.
